This note sets out measurements from patent US20230129258A1, “HETEROTANDEM BICYCLIC PEPTIDE COMPLEXES” (BicycleTx Limited, priority 2019, published 2023).

The nature of data set [1]: Pharmacokinetics in SD rats. The data set is classed as in vivo. Conditions: rat, in vivo, IV Inf (15 minutes). On the procedure:
Male SD Rats were dosed with each heterotandem Bicycle peptide complex formulated in 25 mM Histidine HCl, 10% sucrose pH 7 by IV bolus or IV infusion (15 minutes). Serial bleeding (about 80 μL blood/time point) was performed via submandibular or saphenous vein at each time point. All blood samples were immediately transferred into prechilled microcentrifuge tubes containing 2 μL K2-EDTA (0.5M) as anti-coagulant and placed on wet ice. Blood samples were immediately processed for plasma by centrifugation at approximately 4° C., 3000 g. The precipitant including internal standard was immediately added into the plasma, mixed well and centrifuged at 12,000 rpm, 4° C. for 10 minutes. The supernatant was transferred into pre-labeled polypropylene microcentrifuge tubes, and then quick-frozen over dry ice. The samples were stored at […] or below as needed until analysis. 7.5 μL of the supernatant samples were directly injected for LC-MS/MS analysis using an Orbitrap Q Exactive in positive ion mode to determine the concentrations of analyte. Plasma concentration versus time data were analyzed by non-compartmental approaches using the Phoenix WinNonlin 6.3 software program. C0, CI, Vdss, T½, AUC(0-last), AUC(0-inf), MRT(0-last), MRT(0-inf) and graphs of plasma concentration versus time profile were reported.

Another data set addresses CD137 (Homo sapiens, UniProt Q07011). Description: CD137 reporter assay (Promega, Jurkat cells) in co-culture with EphA2-expressing tumor cells (A549, PC3, HT29). It counts as cell-based. The arrangement: host or cells: Jurkat reporter cells. As to conditions: for Emax (fold induction over background) / fold induction: CD137 reporter coculture assay with PC3 tumor cells; for EC50: EC50, CD137 reporter coculture assay with PC3 tumor cells; for fold induction: read-out: Emax (fold induction over background); for Fold Improvement over BCY9173, EC50 (nM) / Fold Improvement over Emax: co-culture with PC3; for Fold Improvement over Emax: versus BCY9173. The method, then:
Culture medium, referred to as R1 media, is prepared by adding 1% FBS to RPMI-1640 (component of Promega kit CS196005). Serial dilutions of test articles in R1 are prepared in a sterile 96 well-plate. Add 25 μL per well of test articles or R1 (as a background control) to designated wells in a white cell culture plate. Tumor cells* are harvested and resuspended at a concentration of 400,000 cells/mL in R1 media. Twenty five (25) μL/well of tumor cells are added to the white cell culture plate. Jurkat cells (Promega kit CS196005, 0.5 mL) are thawed in the water bath and then added to 5 ml pre-warmed R1 media. Twenty five (25) μL/well of Jurkat cells are then added to the white cell culture plate. Incubate the cells and test articles for 6 h at 37° C., 5% CO2. At the end of 6 h, add 75 μL/well Bio-Glo™ reagent (Promega) and incubate for 10 min before reading luminescence in a plate reader (Clariostar, BMG). The fold change relative to cells alone (Jurkat cells+Cell line used in co-culture) is calculated and plotted in GraphPad Prism as log(agonist) vs response to determine EC50 (nM) and Fold Induction over background (Max).
The tumor cell types used in co-culture for EphA2 are A549, PC3 and HT29. The tumor cell type used in co-culture for PD-L1 is RKO.

The EC50 is the midpoint of the concentration-response curve. Low readings indicate greater potency, high ones weaker potency.

Starred links: 1 amine or outer side, 2 acyl side, 3 side chain; linkers in the order of their positions; H or OH if unused. Positions of bridges follow the written chain, without caps; N, C: chain ends. Non-standard residues stand in square brackets, D forms with d. Primed or numbered codes have the meaning given here. Chains are numbered I, II in the order given. No end group written: not given here. *: point of attachment. X1 = O=C(CCOCCOCCOCCN(CCOCCOCCOCCn1cc(CCC(=O)[*:2])nn1)CCOCCOCCOCCn1cc(CCC(=O)[*:3])nn1)[*:1]; PYA″ = 4-pentynoic acid, acylating the D-Lys side chain, alkyne clicked to the linker azide; X2 = O=C(CCSCCC(=O)[*:1])N1CN(C(=O)CC[*:2])CN(C(=O)CC[*:3])C1; TATA = O=C(CC[*:1])N1CN(C(=O)CC[*:2])CN(C(=O)CC[*:3])C1; Dip = N[C@H](C(=O)O)C(c1ccccc1)c1ccccc1; 1Nal = N[C@@H](Cc1cccc2ccccc12)C(=O)O; Hyp = O=C(O)[C@@H]1C[C@@H](O)CN1; hArg = N=C(N)NCCCC[C@H](N)C(=O)O; tBuAla = CC(C)(C)C[C@H](N)C(=O)O; Aad = N[C@@H](CCCC(=O)O)C(=O)O; Cba = N[C@@H](CC1CCC1)C(=O)O; Nle = CCCC[C@H](N)C(=O)O; Pent4ynoyl = C#CCCC(=O)*; Mpa = O=C(O)CCS

Chain of CD137 (Q07011 24-255): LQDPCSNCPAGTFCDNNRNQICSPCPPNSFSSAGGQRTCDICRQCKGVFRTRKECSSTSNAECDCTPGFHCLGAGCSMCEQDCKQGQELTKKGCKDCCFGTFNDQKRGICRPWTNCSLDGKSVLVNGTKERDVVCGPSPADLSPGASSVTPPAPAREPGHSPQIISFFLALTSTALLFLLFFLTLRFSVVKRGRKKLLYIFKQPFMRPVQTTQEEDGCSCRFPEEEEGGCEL

Take “I: A[hArg]DC[Hyp]LVNPLCLHP[dD]W[hArg]C-NH2 / II: Ac-C[tBuAla]PE[dK]PYCFADPY[Nle]C-NH2 / III: Ac-C[tBuAla]PE[dK]PYCFADPY[Nle]C-NH2 (linker I:4-I:11-I:18, II:1-II:8-II:15, III:1-III:8-III:15 via TATA; linker I:N-II:5-III:5 via X1) [BCY12724]”: the half-life in data set [1] (iv, read-out: T1/2 (converted)) is 1.5 h. In data set [1] (read-out: Clp), the clearance was 13 mL/min/kg. Besides, the Vd in data set [1] (read-out: Vdss) stood at 1.2 L/kg.
Regarding “I: A[hArg]DC[Hyp]LVNPLCL[1Nal]P[dD]W[hArg]C-NH2 / II: Ac-C[tBuAla]PE[dK]PYCFADPY[Nle]CA-NH2 / III: Ac-C[tBuAla]PE[dK]PYCFADPY[Nle]CA-NH2 (linker I:4-I:11-I:18, II:1-II:8-II:15, III:1-III:8-III:15 via TATA; linker I:N-II:5-III:5 via X1) [BCY13271]”, at CD137, the “Emax (fold induction over background)” value was determined as 44.20 and the 50% effective concentration (EC50) was determined as 0.09 nM.
The like results for “I: A[hArg]DC[Hyp]LVNPLCLEP[dD]WTC[dA]-NH2 / II: Ac-C[tBuAla]PE[dK]PYCFADPY[Nle]CA-NH2 / III: Ac-C[tBuAla]PE[dK]PYCFADPY[Nle]CA-NH2 (linker I:4-I:11-I:18, II:1-II:8-II:15, III:1-III:8-III:15 via TATA; linker I:N-II:5-III:5 via X1) [BCY13045]” were, in that order, 49.87 and 0.23 nM.
On to “I: A[hArg]DC[Hyp]LVNPLCLEP[dD]WTC-NH2 / II: [Mpa][tBuAla]PE[dK]PYCFADPY[Nle]C-NH2 / III: [tBuAla]PE[dK]PYCFADPY[Nle]C-NH2 (linker I:4-I:11-I:18, II:1-II:8-II:15 via TATA; linker I:N-II:5-III:4 via X1; linker III:N-III:7-III:14 via X2) [BCY13138]”, for which, on CD137, the fold induction is 32.6 and the EC50 was found to be 0.17 nM.
Consider “I: C[Hyp][Cba]VNPLCL[Dip]P[dD]WTC[dA]-NH2 / II: Ac-C[tBuAla]PE[dK]PYCFADPY[Nle]CA-NH2 / III: Ac-C[tBuAla]PE[dK]PYCFADPY[Nle]CA-NH2 (linker I:1-I:8-I:15, II:1-II:8-II:15, III:1-III:8-III:15 via TATA; linker I:N-II:5-III:5 via X1) [BCY13053]”, for which, on CD137, the “Emax (fold induction over background)” value was 40.33 and the half-maximal effective concentration (EC50) was 0.1 nM.
“I: A[hArg]DC[Hyp][Cba]VNPLCLEP[dD]WTC-NH2 / II: Ac-C[tBuAla]PE[dK]PYCFADPY[Nle]CA-NH2 / III: Ac-C[tBuAla]PE[dK]PYCFADPY[Nle]CA-NH2 (linker I:4-I:11-I:18, II:1-II:8-II:15, III:1-III:8-III:15 via TATA; linker I:N-II:5-III:5 via X1) [BCY13051]”: on CD137, the “Emax (fold induction over background)” value came out at 37.05 and the response was half-maximal at 0.21 nM (EC50).
For the substance “I: A[hArg]EC[Hyp]LVNPLCLHP[dE]W[hArg]C-NH2 / II: Ac-C[tBuAla]PE[dK]PYCFADPY[Nle]CA-NH2 / III: Ac-C[tBuAla]PE[dK]PYCFADPY[Nle]CA-NH2 (linker I:4-I:11-I:18, II:1-II:8-II:15, III:1-III:8-III:15 via TATA; linker I:N-II:5-III:5 via X1) [BCY12978]”, on CD137, the fold induction was 78.1.
For “BCY14335: EphA2:CD137 1:2; BCY14327 (Lys 8) + 2x BCY8928; linker N-(acid-PEG3)-N-bis(PEG3-azide) (peptide 1 {Palmitoyl‑Glu‑LysN3-Pent4ynoyl}-A[hArg]DC[Hyp]LVNPLCLKP[dD]W[hArg]C; peptide 2 Ac-C[tBuAla]PE[dK](Pent4ynoyl)PYCFADPY[Nle]CA; linker I:4-I:11-I:18, II:1-II:8-II:15 via TATA (inferred); not fully specified (some residues); also: 1:2 complex: linker bis(PEG3-azide) clicked to dLys(PYA)4 of two BCY8928 copies, one copy shown)”, in the data set with CD137, the “Fold Improvement over BCY9173, EC50 (nM)” value was determined as 7.14 fold and the “Fold Improvement over Emax” value came to 0.94 fold.
Consider “I: A[hArg]DC[Hyp][Aad]VNPLCLHP[dD]W[hArg]C-NH2 / II: Ac-C[tBuAla]PE[dK]PYCFADPY[Nle]CA-NH2 / III: Ac-C[tBuAla]PE[dK]PYCFADPY[Nle]CA-NH2 (linker I:4-I:11-I:18, II:1-II:8-II:15, III:1-III:8-III:15 via TATA; linker I:N-II:5-III:5 via X1) [BCY13284]”, for which, at CD137, the fold induction turned out to be 34.7 and the midpoint of the response, the EC50, lay at 0.25 nM.
The like results for “I: [dA]EDC[Hyp]LVNPLCLEP[dD]WTC-NH2 / II: Ac-C[tBuAla]PE[dK]PYCFADPY[Nle]CA-NH2 / III: Ac-C[tBuAla]PE[dK]PYCFADPY[Nle]CA-NH2 (linker I:4-I:11-I:18, II:1-II:8-II:15, III:1-III:8-III:15 via TATA; linker I:N-II:5-III:5 via X1) [BCY13280]” were, in that order, 38.1 and 0.19 nM.
On to “I: ADC[Hyp]LVNPLCLEP[dD]WTC-NH2 / II: Ac-C[tBuAla]PE[dK]PYCFADPY[Nle]CA-NH2 / III: Ac-C[tBuAla]PE[dK]PYCFADPY[Nle]CA-NH2 (linker I:3-I:10-I:17, II:1-II:8-II:15, III:1-III:8-III:15 via TATA; linker I:N-II:5-III:5 via X1) [BCY13282]”, for which the fold induction at CD137 turned out to be 40.
Regarding “BCY14052: EphA2:CD137 1:2; BCY13920 + 2x BCY8928; linker N-(acid-PEG3)-N-bis(PEG3-azide) (peptide 1 A[hArg]DC[Hyp]LVNPLCLFP[dD]W[hArg]C; peptide 2 Ac-C[tBuAla]PE[dK](PYA″)PYCFADPY[Nle]CA; linker I:4-I:11-I:18 via TATA; linker II:1-II:8-II:15 via TATA (inferred); not fully specified (N-terminus, bridges); also: 2x chain 2 (2x BCY8928) on linker)”, in the data set with CD137, the “Fold Improvement over BCY9173, EC50 (nM)” value was 4.16 fold and the “Fold Improvement over Emax” value was 1.89 fold.
In the case of “I: A[hArg]DC[Hyp]LVNPLCLHP[dE]W[hArg]C-NH2 / II: Ac-C[tBuAla]PE[dK]PYCFADPY[Nle]CA-NH2 / III: Ac-C[tBuAla]PE[dK]PYCFADPY[Nle]CA-NH2 (linker I:4-I:11-I:18, II:1-II:8-II:15, III:1-III:8-III:15 via TATA; linker I:N-II:5-III:5 via X1) [BCY12977]”, on CD137, the fold induction is 67.2 and the EC50 worked out at 0.08 nM.
As for “I: [dA][hArg]DC[Hyp][Cba]VNPLCLEP[dD]WTC[dA]-NH2 / II: Ac-C[tBuAla]PE[dK]PYCFADPY[Nle]CA-NH2 / III: Ac-C[tBuAla]PE[dK]PYCFADPY[Nle]CA-NH2 (linker I:4-I:11-I:18, II:1-II:8-II:15, III:1-III:8-III:15 via TATA; linker I:N-II:5-III:5 via X1) [BCY13052]”, on CD137, the fold induction is 32.9 and it took 0.21 nM to reach a half-maximal effect (EC50).
As to “I: Ac-C[Hyp]LVNPLCL[Dip]P[dD]WTC[dK]-NH2 / II: Ac-C[tBuAla]PE[dK]PYCFADPY[Nle]CA-NH2 / III: Ac-C[tBuAla]PE[dK]PYCFADPY[Nle]CA-NH2 (linker I:1-I:8-I:15, II:1-II:8-II:15, III:1-III:8-III:15 via TATA; linker I:16-II:5-III:5 via X1; C-terminus assumed) [BCY13274]”, at CD137, the “Emax (fold induction over background)” value was found to be 47.43 and it took 0.19 nM to reach a half-maximal effect (EC50).
